Assay results: patent publication USRE47221E1, “Tricyclic compounds” (AbbVie Inc., priority 2009, dated 2019)

Each molecule was assayed against T1, Jak3 (Homo sapiens, UniProt P52333) (assay: Jak3 enzyme data for selected compounds).
T1 construct: Jak3 enzyme (aa 811-1103); expressed in SF9 cells as a GST fusion; GST; made in house; host or cells: SF9 insect cells
Type: biochemical

T1 sequence (P52333 811-1103): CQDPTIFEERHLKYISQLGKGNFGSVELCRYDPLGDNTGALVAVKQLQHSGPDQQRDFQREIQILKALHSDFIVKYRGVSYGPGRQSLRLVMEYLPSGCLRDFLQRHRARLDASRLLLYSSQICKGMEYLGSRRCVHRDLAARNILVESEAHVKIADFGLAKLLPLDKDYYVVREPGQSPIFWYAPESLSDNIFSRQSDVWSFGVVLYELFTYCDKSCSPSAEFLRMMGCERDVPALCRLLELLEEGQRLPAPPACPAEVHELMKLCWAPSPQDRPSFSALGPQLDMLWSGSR

Row | SMILES | IC50 [nM]
1 | CC[C@@H]1C[C@H](Nc2cnc(C#N)cn2)C[C@@H]1c1nnc2cnc3[nH]ccc3n12 [D.2.11] | 100 to 1000
2 | C[C@H]1CCN(S(=O)(=O)CCC(F)(F)F)C[C@@H]1Nc1ncc2cnc3[nH]ccc3n12 (racemic) [D.1.66] | > 1000
3 | CC[C@@H]1C[C@H](NS(=O)(=O)C2CC2)C[C@@H]1n1cnc2cnc3[nH]ccc3c21 (single isomer, unassigned) [Example #23] | < 100
4 | CCCCC1(S(=O)(=O)N[C@H]2C[C@@H](CC)[C@@H](c3nnc4cnc5[nH]ccc5n34)C2)CC1 [D.1.84] | 100 to 1000
5 | CC[C@@H]1C[C@H](Nc2ccc(C#N)cn2)C[C@@H]1c1nnc2cnc3[nH]ccc3n12 [D.2.19] | 100 to 1000
6 | O=C(N1CCC[C@@H](c2cnc3cnc4[nH]ccc4n23)C1)N1CCC(F)(F)C1 (single isomer, unassigned) [AA.1.8, (3-(3H-imidazo[1,2-a]pyrrolo[2,3-e]pyrazin-8-yl)piperidin-1-yl)(3,3-difluoropyrrolidin-1-yl)methanone] | < 100
7 | O=C(N1CCC(Cl)CC1)N1CCC[C@@H](c2ncc3cnc4[nH]ccc4n23)C1 [J.3.11] | < 100
8 | CC[C@@H]1C[C@H](NS(=O)(=O)C(C)(C)C)C[C@@H]1c1nnc2cnc3[nH]ccc3n12 [D.1.67] | 100 to 1000
9 | CC[C@@H]1C[C@@H](Oc2ccc(C(F)(F)F)cn2)C[C@@H]1c1nnc2cnc3[nH]ccc3n12 (single isomer, unassigned) [AA.1.95, 1-(2-ethyl-4-(5-(trifluoromethyl)pyridin-2-yloxy)cyclopentyl)-6H-pyrrolo[2,3-e][1,2,4]triazolo[4,3-a]pyrazine] | > 1000
10 | CC[C@@H]1C[C@H](NS(=O)(=O)CC(F)(F)F)C[C@@H]1c1nnc2cnc3[nH]ccc3n12 [K.5.1] | < 100
11 | CC[C@@H]1C[C@H](NS(=O)(=O)C2(C)CC2)C[C@@H]1c1nnc2cnc3[nH]ccc3n12 [D.1.35] | < 100
12 | C[C@@H]1CCN(C(=O)N2CC(F)(F)C2)C[C@@H]1c1ncc2cnc3[nH]ccc3n12 [J.2.5] | < 100
13 | N#C[C@H]1CCN(C(=O)N2CCC[C@@H](c3ncc4cnc5[nH]ccc5n34)C2)C1 [AA.1.12, 1-((R)-3-(6H-imidazo[1,5-a]pyrrolo[2,3-e]pyrazin-1-yl)piperidine-1-carbonyl)pyrrolidine-3-carbonitrile] | < 100
14 | CC[C@@H]1C[C@H](NS(=O)(=O)N2CC(F)(F)C2)C[C@@H]1c1nnc2cnc3[nH]ccc3n12 [D.1.11] | 100 to 1000
15 | CC[C@@H]1C[C@H](NS(=O)(=O)CCC(F)(F)F)C[C@@H]1c1nnc2cnc3[nH]ccc3n12 [D.1.24] | 100 to 1000

The next lines start with the values.

Row | IC50 [nM] | SMILES
16 | > 1000 | CC[C@@H]1C[C@H](OC2CCOCC2)C[C@@H]1c1nnc2cnc3[nH]ccc3n12 [Example #22, 1-((1S,2R,4S)-2-ethyl-4-(tetrahydro-2H-pyran-4-yloxy)cyclopentyl)-6H-pyrrolo[2,3-e][1,2,4]triazolo[4,3-a]pyrazine]
17 | < 100 | CC[C@@H]1C[C@H](NS(=O)(=O)C2CC2)C[C@@H]1c1nc(Br)c2cnc3[nH]ccc3n12 [D.1.45]
18 | < 100 | C[C@H]1CCN(C(=O)N(C)C)C[C@H]1c1ncc2cnc3[nH]ccc3n12 (racemic) [I.2.2]
19 | > 1000 | CC[C@@H]1C[C@H](NS(=O)(=O)CCn2cncn2)C[C@@H]1c1nnc2cnc3[nH]ccc3n12 [YY.1.2]
20 | > 1000 | CC1(S(=O)(=O)NC23CCC(c4nnc5cnc6[nH]ccc6n45)(CC2)CC3)CC1 [D.1.33]
21 | 100 to 1000 | CC[C@@H]1CCN(C(=O)CC#N)C[C@@H]1c1ncc2cnc3[nH]ccc3n12 (single isomer, unassigned) [AA.1.54, 3-(cis-4-ethyl-3-(6H-imidazo[1,5-a]pyrrolo[2,3-e]pyrazin-1-yl)piperidin-1-yl)-3-oxopropanenitrile]
22 | < 100 | C#CCCC(=O)N1CC[C@@H](C)[C@@H](c2ncc3cnc4[nH]ccc4n23)C1 [H.1.6]
23 | 100 to 1000 | FC(F)(F)c1nc2cnc3[nH]ccc3c2n1C1CCCCC1 [D.1.52]
